# Laboratory results from patent publication US20250075248A1, “SYSTEMS, METHODS, AND DEVICES FOR ANTIMICROBIAL SUSCEPTIBILITY TESTING” (Deepull Diagnostics S.L., priority 2022, published 2025).
# Key:
# Format in all cases: cell-based
# [1] = test system: Escherichia coli resistant (ATCC700891); assay: Broth microdilution method MIC; conditions: E. coli ATCC700891, read-out: MIC according to broth microdilution method
# [2] = test system: Escherichia coli susceptible (ATCC25922); assay: Broth microdilution method MIC; conditions: E. coli ATCC25922, read-out: MIC according to broth microdilution method
# [3] = test system: Escherichia coli susceptible (ATCC25922); assay: Fast (1 hour) high dose detection of resistant bacteria by fluorescence microscopy
# Procedure: (§1) To rapidly detect high resistant bacteria to a particular antimicrobial agent, bacteria were grown during a short period of time (1 hour) in the presence of high dose of that antimicrobial agent. Two strains of Escherichia coli, one susceptible (ATCC25922) and the other resistant (ATCC700891) to ampicillin were grown until an exponential phase in culture media. Bacteria cultures were diluted in culture media (Mueller Hinton cation adjusted broth) and were incubated at a final concentration of 2×10^4 CFU/mL during 1 hour at 37° C. in the presence of ampicillin at a final concentration of 128 mg/L, 64 mg/L, and 32 mg/L in a final volume of 10 μL. Three replicates were performed for each antibiotic concentration.
# (§2) Samples were visualized at time 0 that represents bacteria before any incubation and after 1 hour incubation. 5 μL of each sample were transferred to a 384-well plate with flat polystyrene film bottom and incubated with fluorescence dyes (SYBR Green and Propidium Iodide) during 10 minutes at room temperature in the dark. The 384-well plate was centrifuged during 1 minute at 3000 g in a swinging-bucket movement and observed in an inverted fluorescence microscope. For each sample a composite image covering the bottom of each well was constructed. Images were analyzed with a custom software to count bacteria, detect filamentous bacteria, counts red bacteria, and record the brightness of bacteria. These images are illustrated in FIG. 26A.
# [4] = test system: Escherichia coli resistant (ATCC700891); assay: as above
# Procedure: as §1, §2
# [5] = test system: Staphylococcus aureus resistant (ATCC43300); assay: Broth microdilution method MIC; conditions: S. aureus ATCC43300
# [6] = test system: Staphylococcus aureus susceptible (ATCC29213); assay: Broth microdilution method MIC; conditions: S. aureus ATCC29213
# [7] = test system: Staphylococcus aureus resistant (ATCC43300); assay: Microscopy-based AST (MIC) from liquid culture
# Procedure: (§3) The minimal inhibitory concentration was determined for two strains of Gram-positive bacteria Staphylococcus aureus, one susceptible (ATCC29213) and one resistant (ATCC43300) to erythromycin, according to embodiments described herein. […] Bacteria cultures were diluted in culture media (Mueller Hinton cation adjusted broth) and were incubated at a final concentration of 2×10^4 CFU/mL during 5 hours at 37° C. at different concentrations of […] in a final volume of 10 μL. S. aureus strain susceptible to erythromycin was tested at 1, 0.5, 0.25, 0.125, 0.06 and 0.03 mg/L, whereas resistant strain was tested at 4, 2, 1, 0.5, 0.25 and 0.125 mg/L of erythromycin. Three replicates were performed for each antibiotic concentration.
# (§4) Samples were analyzed at time 0 of incubation and after 5 hours incubation (with and without antibiotic). Samples were incubated with fluorescence dyes (SYBR Green and Propidium Iodide) during 10 minutes at room temperature in the dark. After dye incubation a sample of 1 μL was diluted with 4 μL of buffer (NaCl 0.9%) and transferred to a 384-well plate with flat polystyrene film bottom. The 384-well plate was centrifuged during 1 minute at 3000 g in a swinging-bucket movement and observed in an inverted fluorescence microscope. For each sample, a composite image covering the bottom of each well was constructed. Images were analyzed with a custom software to count bacteria, detect filamentous bacteria, counts red bacteria, and record the brightness of bacteria.
# (§5) Data obtained from images was used to perform a Graph either for S. aureus susceptible and resistant to erythromycin (FIGS. 25A and 25B, respectively).
# [8] = test system: Staphylococcus aureus susceptible (ATCC29213); assay: Microscopy-based AST (MIC) from liquid culture
# Procedure: as §3, §4, §5
# [9] = 128 mg/L, 64 mg/L and 32 mg/L, 1 hour at 37° C.
SMILES,MIC [1],MIC [2],"bacterial growth after 1 hour incubation [3, 9]","red (Propidium Iodide, dead) bacteria after 1 hour incubation ([3]; at 128 mg/L)","bacterial morphology after 1 hour incubation ([3]; in the three concentrations tested (128, 64, 32 mg/L))","bacterial growth after 1 hour incubation [4, 9]","filamentous or red bacteria after 1 hour incubation ([4]; all three tested concentrations (128, 64, 32 mg/L))",MIC [5],MIC [6],"MIC ([7]; Staphylococcus aureus, S. aureus ATCC43300, 2×10^4 CFU/mL, 5 hours at 37° C., highest concentration tested 4 mg/L)",bacterial growth after 5 hours incubation ([7]; at 4 mg/L and lower concentrations),"MIC ([8]; Staphylococcus aureus, S. aureus ATCC29213, 2×10^4 CFU/mL, 5 hours at 37° C., image analysis)",bacterial growth after 5 hours incubation ([8]; at 0.125 mg/L),bacterial growth after 5 hours incubation ([8]; at a concentration ≥0.25 mg/L)
"CC1(C)S[C@@H]2[C@H](NC(=O)[C@H](N)c3ccccc3)C(=O)N2[C@H]1C(=O)O [ampicillin, Ampicillin]",≥ 128 µg/mL,4 µg/mL,does not grow,presence of red bacteria,filamentous form,showed growth,without presence of filamentous bacteria or red bacteria,–,–,–,–,–,–,–
"CC[C@H]1OC(=O)[C@H](C)[C@@H](O[C@H]2C[C@@](C)(OC)[C@@H](O)[C@H](C)O2)[C@H](C)[C@@H](O[C@@H]2O[C@H](C)C[C@H](N(C)C)[C@H]2O)[C@](C)(O)C[C@@H](C)C(=O)[C@H](C)[C@@H](O)[C@]1(C)O [erythromycin, Erythromycin]",–,–,–,–,–,–,–,≥ 512 µg/mL,0.25 to 0.5 µg/mL,≥ 4 µg/mL,showed growth,0.25 µg/mL,showed growth,did not grow
